Reference: patent US6670383B2, “Pyranocoumarin compounds as a novel pharmacophore with anti-TB activity” (priority 2001, dated 2003)
Converted amounts (≈) assume the structure as drawn. Counter-ions that a name gives are not always drawn. Like-named read-outs stand apart in the source and are kept apart here.

Legend:
Format in all cases: cell-based
[1] = system: H37Rv strain of M. tuberculosis; assay: BACTEC 460 radiometric system in BACTEC 12B medium: inhibition and MIC; details: for MIC: lowest concentration inhibiting 99% of the inoculum
[2] = system: M. tuberculosis H37Ra; assay: colorimetric microdilution broth assay with alamar Blue, initial screen at four log10 dilutions; details: initial screening at 0.128, 1.28, 12.8 and 128 μg/mL
Experimental: The compounds synthesized above were evaluated for activity against M. tuberculosis H37Ra using a colorimetric microdilution broth assay that incorporated the REDOX indicator alamar Blue, which indicates the growth and viability by the metabolic reduction of the dye from blue to red^18.
In an initial screen, the compounds were assayed in duplicate at four log10 dilutions, with the highest concentration being 128 μg/mL (therefore, tested concentrations were 0.128, 1.28, 12.8, and 128 μg/mL). Each solubilized test compound was diluted in broth medium (Middlebrook 7H9+ADC enrichment+0.2% glycerol) at twice the desired concentration and 0.05 mL of each dilution then added to appropriate wells in duplicate in a 96 well (U-shaped) microtiter plates. A plate format was designed for up to seven (7) compounds per plate. Each plate also included uninoculated drug controls, viability controls, uninoculated medium controls, and positive drug controls. The inoculum for each well consisted of 0.05 mL of culture, standardized as described above to provide an inoculum in each microtiter well of approximately 10^5 CFU/mL. The plates were covered with a lid, placed in polyethylene bags and incubated for at 37° C. for 6 days. At that time, alamar Blue, diluted in Tween 80, was added to each well followed by further incubation for about 20 hours. The plates were read in an optical microplate reader programmed to subtract absorbance at 600 nm from absorbance at 570 nm. This effectively blanked out turbidity and absorbance due to oxidized dye. The amount of dye reduced, resulting in a change from blue to red, is indicative of drug yielding a differential absorption of zero or less.

[3] = system: M. tuberculosis H37Ra; assay: MIC and MBC determination using 2-fold dilutions; details: for MIC / MBC: Mycobacterium tuberculosis
[4] = Mycobacterium tuberculosis, H37RA, read-out: MIC
[5] = 2-fold dilutions, lowest concentration that completely inhibits growth, H37Ra, read-out: MIC
[6] = minimum bactericidal concentration, H37Ra, read-out: MBC
[7] = Mycobacterium tuberculosis, H37RA

`CCCc1cc(=O)oc2c3c(c4c(c12)OC(C)(C)C=C4)O[C@H](C)[C@@H](C)C3=O` [(+)-12-Oxocalanolide A (6), (+)-12-Oxocalanolide A] was tested, and the “% Inhibition” value ([1]; 12.5 μg/mL) was 78% and the MIC [1] was >12.5 µg/mL.

With `CCCc1cc(=O)oc2c(C(=O)CC)c(OCCO)c3c(c12)OC(C)(C)C=C3` [Compound 31e, 5-(2-Hydroxy-ethoxy)-2,2-dimethyl-6-propionyl-10-propyl-2H-pyrano[2,3-f]chromen-8-one] the MIC [2, 4] was 12.8 to 128 µg/mL (≈ 33.1 to 331 µM).

With `C=CC(C)Oc1cc2c(c3oc(=O)cc(CCC)c13)C(O)C(C)C(C)O2` (stereo not drawn) [cis-17f, 5-(1-Methylallyloxy)-10-hydroxy-8,9-dimethyl-4-propyl-9,10-dihydro-8H-pyrano[2,3-f]chromen-2-one] the MIC [3, 5] was 16 µg/mL (≈ 44.6 µM) and the MBC [3, 6] was > 64 µg/mL.

With `CCCc1cc(=O)oc2c3c(c4c(c12)OC(C)(C)C=C4)O[C@H](C)[C@@H](C)C3N` (stereo partly drawn) [Compound 22] the MIC [2, 4] was 1.28 to 12.8 µg/mL (≈ 3.46 to 34.6 µM), the “effect on M. tuberculosis” value [3] was “bactericidal” and the MIC [3, 5] was 16 µg/mL (≈ 43.3 µM). The MBC [3, 6] was 32 µg/mL (≈ 86.6 µM).

With `CCCc1cc(=O)oc2c3c(c4c(c12)OC(C)(C)CC4)OC(C)C(C)C3=O` (racemic) [(±)-7,8-Dihydro-12-Oxocalanolide A (7), (±)-7,8-Dihydro-12-Oxocalanolide A] the “% Inhibition” value ([1]; 12.5 μg/mL) was 43% and the MIC [1] was >12.5 µg/mL.

With `CCCc1cc(=O)oc2c3c(c4c(c12)OC(C)(C)C=C4)O[C@H](C)[C@H](C)C3=O` [(+)-Calanolide D (8), (+)-Calanolide D] the “% Inhibition” value ([1]; 12.5 μg/mL) was 57% and the MIC [1] was >12.5 µg/mL.

`CCCc1cc(=O)oc2c(C(=O)CC)c(OC)c3c(c12)OC(C)(C)C=C3` [Compound 31b, 5-Methoxy-2,2-dimethyl-6-propionyl-10-propyl-2H-pyrano[2,3-f]chromen-8-one] was tested, and the MIC [2, 4] was 12.8 to 128 µg/mL (≈ 35.9 to 359 µM).

For `CCCc1cc(=O)oc2c(C(=O)CC)c(CC(=O)OCC)c3c(c12)OC(C)(C)CC3` [Compound 44i, 5-Ethoxycarbonylmethyl-2,2-dimethyl-6-propionyl-10-propyl-3,4-dihydro-2H,8H-pyrano[2,3-f]chromen-8-one], the MIC [2, 7] was > 128 µg/mL.

`CCCc1cc(=O)oc2c(C(O)CC)c(O)c3c(c12)OC(C)(C)C=C3` (stereo not drawn) [Compound 11a, 5-Hydroxy-6-(1-hydroxypropyl)-2,2-dimethyl-10-propyl-2H-pyrano[2,3-f]chromen-8-one] was tested, and the MIC [2, 4] was 12.8 to 128 µg/mL (≈ 37.2 to 372 µM).

In the case of “7,8-Dihydrosoulattrolide [7,8-Dihydrosoulattrolide (5)]”, the “% Inhibition” value ([1]; 12.5 μg/mL) is reported as 99% and the MIC [1] is reported as 6.25 µg/mL.

`C#CCOc1cc2c(c3oc(=O)cc(CCC)c13)C(O)C(C)C(C)O2` (stereo not drawn) [Compound trans-17d, 5-(Prop-2-ynyloxy)-10-hydroxy-8,9-dimethyl-4-propyl-9,10-dihydro-8H-pyrano[2,3-f]chromen-2-one] was tested, and the MIC [2] was >128 µg/mL.

In the case of `C=CCOc1cc2c(c3oc(=O)cc(CCC)c13)C(O)C(C)C(C)O2` (stereo not drawn) [trans-17c, 5-(Allyloxy)-10-hydroxy-8,9-dimethyl-4-propyl-9,10-dihydro-8H-pyrano[2,3-f]chromen-2-one], the MIC [2] is reported as >128 µg/mL.

`CCCc1cc(=O)oc2c(C(=O)CC)c(OCCN3CCOCC3)c3c(c12)OC(C)(C)CC3` [2,2-Dimethyl-5-(2-morpholin-4-yl-ethoxy)-6-propionyl-10-propyl-3,4-dihydro-2H-pyrano[2,3-f]-chromen-8-one] was tested, and the MIC [2, 4] was > 128 µg/mL.

For `C=CCOc1cc(OCC=C)c2c(CCC)cc(=O)oc2c1C(O)CC` (stereo not drawn) [Compound 21d, 5,7-Bis-allyloxy-8-(1-hydroxy-propyl)-4-propyl-chromen-2-one], the MIC [2, 4] was 1.28 to 12.8 µg/mL (≈ 3.57 to 35.7 µM), the MIC [3, 5] was 16 µg/mL (≈ 44.6 µM) and the MBC [3, 6] was > 64 µg/mL.

For `CCCc1cc(=O)oc2c3c(cc(OC)c12)OC(C)C(C)C3O` (stereo not drawn) [cis-17b, 5-Methoxy-10-hydroxy-8,9-dimethyl-4-propyl-9,10-dihydro-8H-pyrano[2,3-f]chromen-2-one], the MIC [2] was >128 µg/mL.

For `CCCc1cc(=O)oc2c3c(c4c(c12)OC(C)(C)C=C4)O[C@H](C)[C@@H](C)C3=O` (racemic) [(±)-6], the “% Inhibition” value ([1]; 12.5 μg/mL) was 59% and the MIC [1] was >12.5 µg/mL.

In the case of `CCCc1cc(=O)oc2c(C(O)CC)c(OCCO)c3c(c12)OC(C)(C)CC3` (stereo not drawn) [Compound 12e, 5-(2-Hydroxyethoxy)-6-(1-hydroxypropyl)-2,2-dimethyl-10-propyl-3,4-dihydro-2H-pyrano[2,3-f]chromen-8-one], the MIC [2, 4] is reported as 12.8 to 128 µg/mL (≈ 32.8 to 328 µM).

In the case of `CCCc1cc(=O)oc2c(C(=O)CC)c(O)c3c(c12)OC(C)(C)CC3` [Compound 44a, 5-Hydroxy-2,2-dimethyl-6-propionyl-10-propyl-3,4-dihydro-2H-pyrano[2,3-f]chromen-8-one], the MIC [2, 4] is reported as > 128 µg/mL.

`CCCc1cc(=O)oc2c(C(O)CC)c(OCCO)c3c(c12)OC(C)(C)C=C3` (stereo not drawn) [Compound 11e, 5-(2-Hydroxyethoxy)-6-(1-hydroxypropyl)-2,2-dimethyl-10-propyl-2H-pyrano[2,3-f]chromen-8-one] showed an MIC [2, 4] of 12.8 to 128 µg/mL (≈ 33 to 330 µM).

`CCCc1cc(=O)oc2c(C(=O)CC)c(OCCO)c3c(c12)OC(C)(C)CC3` [Compound 44e, 5-(2-Hydroxyethoxy)-2,2-dimethyl-6-propionyl-10-propyl-3,4-dihydro-2H-pyrano[2,3-f]chromen-8-one] gave an MIC [2, 4] of 12.8 to 128 µg/mL (≈ 33 to 330 µM).

For `C[C@H]1[C@H](C)Oc2c3c(c4c(-c5ccccc5)cc(=O)oc4c2[C@H]1O)OC(C)(C)C=C3` [Soulattrolide (4), Soulattrolide], the inhibition at 12.5 µg/mL ([1]; Mycobacterium tuberculosis, 12.5 μg/mL) was 99% and the MIC ([1]; Mycobacterium tuberculosis, read-out: MIC) was 3.13 µg/mL (≈ 7.74 µM).

In the case of `CCCc1cc(=O)oc2c(C(=O)CC)c(OC(C)C)c3c(c12)OC(C)(C)CC3` [Compound 44h, 5-Isopropoxy-2,2-dimethyl-6-propionyl-10-propyl-3,4-dihydro-2H-pyrano[2,3-f]chromen-8-one], the MIC [2, 4] is reported as > 128 µg/mL.

`CCCc1cc(=O)oc2c(C(=O)CC)c3c(c(O)c12)C=CC(C)(C)O3` [Compound 47] showed an MIC [2, 4] of 12.8 to 128 µg/mL (≈ 37.4 to 374 µM).

`CCCc1cc(=O)oc2c(C(O)CC)c(OC)c3c(c12)OC(C)(C)C=C3` (stereo not drawn) [Compound 11b, 6-(1-Hydroxypropyl)-5-methoxy-2,2-dimethyl-10-propyl-2H-pyrano[2,3-f]chromen-8-one] showed an MIC [2, 7] of 12.8 to 128 µg/mL (≈ 35.7 to 357 µM).

`CCCc1cc(=O)oc2c(C(=O)CC)c(OCCO)c3c(c12)OC(C)(C)CC3` [Compound 44k] was tested, and the MIC [2] was >128 µg/mL.

With `CCCc1cc(=O)oc2c(C(=O)CC)c3c(c(OCC)c12)C=CC(C)(C)O3` [Compound 48] the MIC [2, 4] was 12.8 to 128 µg/mL (≈ 34.6 to 346 µM).

With `CCCc1cc(=O)oc2c(C(N)CC)c(OC(C)C)cc(OC(C)C)c12` (stereo not drawn) [Compound 26c, 8-(1-Aminopropyl)-5,7-diisopropoxy-4-propyl-chromen-2-one, hydrochloride] the MIC [2, 4] was 1.28 to 12.8 µg/mL, the “effect on M. tuberculosis” value [3] was “bactericidal” and the MIC [3, 5] was 16 µg/mL. For the same molecule, the MBC [3, 6] was 64 µg/mL.

In the case of `CCCc1cc(=O)oc2c(C(O)CC)c(OC)c3c(c12)OC(C)(C)CC3` (stereo not drawn) [Compound 12b, 6-(1-Hydroxypropyl)-5-methoxy-2,2-dimethyl-10-propyl-3,4-dihydro-2H-pyrano[2,3-f]chromen-8-one], the MIC [2, 7] is reported as 12.8 to 128 µg/mL (≈ 35.5 to 355 µM).

With `CCCc1cc(=O)oc2c(C(=O)CC)c(O)c3c(c12)OC(C)(C)C=C3` [Compound 30, 5-hydroxy-2,2-dimethyl-6-propionyl-10-propyl-2H-pyrano[2,3-f]chromen-8-one] the MIC [2, 4] was > 128 µg/mL.

`CCCc1cc(=O)oc2c(C(O)CC)c(O)c3c(c12)OC(C)(C)CC3` (stereo not drawn) [Compound 12a, 5-Hydroxy-6-(1-hydroxypropyl)-2,2-dimethyl-10-propyl-3,4-dihydro-2H-pyrano[2,3-f]chromen-8-one] showed an MIC [2, 4] of 12.8 to 128 µg/mL (≈ 36.9 to 369 µM).

For `CCCc1cc(=O)oc2c(C(N)CC)c(O)c3c(c12)OC(C)(C)C=C3` (stereo not drawn) [Compound 45a, 6-(1-Aminopropyl)-5-hydroxy-2,2-dimethyl-10-propyl-2H-pyrano[2,3-f]chromen-8-one], the MIC [2, 4] was 12.8 to 128 µg/mL (≈ 37.3 to 373 µM).

`CCCc1cc(=O)oc2c(C(CC)NCC)c(OC)c3c(c12)OC(C)(C)C=C3.Cl` (stereo not drawn) [Compound 45g, 6-(1-Ethylaminopropyl)-5-methoxy-2,2-dimethyl-10-propyl-2H-pyrano[2,3-f]chromen-8-one, hydrochloride] gave an MIC [2, 4] of 12.8 to 128 µg/mL.

In the case of `CCCc1cc(=O)oc2c(C(=O)CC)c(OC)cc(OC)c12` [Compound 43b, 5,7-Dimethoxy-8-propionyl-4-propyl-chromen-2-one], the MIC [2, 4] is reported as > 128 µg/mL.

`C=C(C)COc1cc2c(c3oc(=O)cc(CCC)c13)C(O)C(C)C(C)O2` (stereo not drawn) [trans-17g, 5-(2-Methylallyloxy)-10-hydroxy-8,9-dimethyl-4-propyl-9,10-dihydro-8H-pyrano[2,3-f]chromen-2-one] was tested, and the MIC [2] was >128 µg/mL.

In the case of `CCCc1cc(=O)oc2c3c(c4c(c12)OC(C)(C)C=C4)O[C@@H](C)[C@H](C)[C@@H]3O` [(−)-Calanolide B (3), (−)-Calanolide B], the “% Inhibition” value ([1]; 12.5 μg/mL) is reported as 99% and the MIC [1] is reported as 6.25 µg/mL (≈ 16.9 µM).

`C=CCOc1cc2c(c3oc(=O)cc(CCC)c13)C(O)C(C)C(C)O2` (stereo not drawn) [cis-17c, 5-(Allyloxy)-10-hydroxy-8,9-dimethyl-4-propyl-9,10-dihydro-8H-pyrano[2,3-f]chromen-2-one] was tested, and the “effect on M. tuberculosis” value [3] was “bactericidal”, the MBC ([3]; H37RA) was 64 µg/mL (≈ 186 µM) and the MIC ([3]; H37RA) was 16 µg/mL (≈ 46.5 µM).
